Data reported in US11260054B2, “Methods of treatment of cancer” (Pano Therapeutics, Inc., priority 2018, dated 2022).
Like-named read-outs stand apart in the source and are kept apart here.

Experiments:
[1] = system: PANC-1 Cell Line; assay: Pancreatic cancer cell survival assay, PANC-1 (CellTiter-Glo); format: cell-based; conditions: 72 hrs incubation, read-out: Absolute IC50
Experimental: (§1) PANC-1 and MiaPaCa-2 were grown overnight at 37° C., 5% CO2 and 95% humidity. PANC-1 was grown in DMEM+10% FBS and MIA PaCa-2 was grown in DMEM+10% FBS+2.5% H. Cells from each cell line were then incubated for 72 hrs in humidified incubator at 37° C. and 5% CO2 with 5 m, AA6, metformin, or cisplatin at concentrations ranging from 100 μM-50 nM. Each condition was done in triplicate, and the structures of the compounds were not known to the experimenters. After the incubation, cells were lysed with CellTiter-Glo® Luminescent Cell Viability Assay reagent (Promega) and luminescence was read using an EnVision plate reader (PerkinElmer). Cell viability was plotted with GraphPad Prism version 5 and the IC50 was calculated for each compound with each cell line. The graphical curves were fitted using a nonlinear regression model with a sigmoidal dose response.

[2] = Pharmacokinetic parameters in mice, IV and oral; format: in vivo, BALB/c mice; conditions: for Vd: BALB/c, iv
Experimental: Fed BALB/c mice were administered either 2 mg/kg of 5 m intravenously via the tail vein or 10 mg/kg of 5 m orally. For both conditions, 5 m was dissolved in 10% DMSO/50% PEG400/40% Water. Blood was sampled at various timepoints after the compound was administered and was analyzed using AB Sciex API 4000 LC/MS/MS in positive ion mode.

[3] = system: HCT116 cells; assay: Hypoxic cancer cell survival assay, normoxic vs hypoxic (CellTiter-Glo); format: cell-based; conditions: for IC50: 72 hrs, read-out: Absolute IC50
Experimental: HCT116 cells were cultured in an atmosphere of 37° C., 5% CO2, 95% humidity, and with either 1% O2 (hypoxic) or 20% O2 (normoxic). No antibiotics were used in the cell culturing. HeLa cells were grown in parallel and samples were taken after 48 h and 72 h to confirm Hypoxia-inducible factor-1α (HIF-1α) expression by western blot.
HCT116 cells were then seeded on 6-well plates and incubated at 37° C., 5% CO2, and 95% humidity overnight. Cells previously cultured under hypoxic conditions were again incubated with 1% O2, and cells previously cultured under normoxic conditions were again incubated with 20% O2.
as §1, with “Hypoxic” for “PANC-1”, “normoxic cells” for “MiaPaCa-2 were grown overnight at 37° C., 5% CO2 and 95% humidity. PANC-1 was grown in DMEM+10% FBS and MIA PaCa-2 was grown in DMEM+10% FBS+2.5% H. Cells from each cell line”, “C., 5% CO2, 95% humidity,” for “C.”, “either 1% O2 (hypoxic) or 20% O2 (normoxic)” for “5% CO2”, “1 mM-50” for “100 μM-50”

[4] = system: MiaPaCa-2 Cell Line; assay: Pancreatic cancer cell survival assay, MiaPaCa-2 (CellTiter-Glo); format: cell-based; conditions: 72 hrs incubation, read-out: Absolute IC50
Experimental: as §1

[5] = system: HTC116 Cell Line; assay: Colorectal cancer cell survival assay (CellTiter-Glo); format: cell-based; conditions: 72 hrs incubation
Experimental: HTC116 cells were grown overnight at 37° C., 5% CO2. Cells were then incubated for 72 hrs in humidified incubator at 37° C. and 5% CO2 with 5 m, AA6, metformin, S1QEL 1.1, or cisplatin at concentrations ranging from 100 μM-50 nM. Each condition was done in triplicate, and the structures of the compounds were not known to the experimenters. After the incubation, cells were lysed with CellTiter-Glo® Luminescent Cell Viability Assay reagent (Promega) and luminescence was read using an Envision plate reader.
The IC50s of 5 m, AA6, and cisplatin were similar with 5 m and AA6 having slightly lower IC50s. Metformin and S1Qel 1.1 had dramatically larger IC50s than 5 m, AA6, or cisplatin. Cell viability was plotted with GraphPad Prism version 5 and the IC50 was calculated for each compound. The graphical curves were fitted using a nonlinear regression model with a sigmoidal dose response.

[6] = mouse, blood, IV, 2 mg/kg, fed BALB/c mice, mean N = 3
[7] = mouse, blood, oral, 10 mg/kg, fed BALB/c mice, mean N = 3
[8] = HCT116, hypoxic conditions (1% O2)
[9] = Homo sapiens, HCT-116, 72 h, HCT116, hypoxic conditions (1% O2)

With `N/C(=N\C(=O)c1nc(Cl)c(NCc2ccc(I)cc2)nc1N)NCCCCc1ccccc1` [5m, (E)-3-amino-N-(amino((4-phenylbutyl)amino)methylene)-6-chloro-5-((4-iodobenzyl)amino)pyrazine-2-carboxamide] the IC50 [1] was 4.7 µM, the IC50 ([1]; Homo sapiens, PANC-1, 72 h) was less than 6 µM and the “apparent abnormal symptoms or toxicity during the assay” value ([2]; 2 mg/kg intravenously or 10 mg/kg orally, BALB/c mice) was “did not result in any apparent abnormal symptoms or toxicity”. The Vd ([2]; mouse, blood, 2 mg/kg, IV, 2 mg/kg, fed BALB/c mice, mean N = 3, read-out: Vss) was 9.41 L/kg, the Vd ([2]; mouse, blood, 2 mg/kg, IV, 2 mg/kg, fed BALB/c mice, mean N = 3, read-out: Vz) was 17.5 L/kg and the “AUC Extr” value ([2]; IV, 2 mg/kg, fed BALB/c mice, mean N = 3) was 2.47%. For the same compound, the half-life ([2]; mouse, blood, IV, 2 mg/kg via tail vein, fed BALB/c mice, mean N = 3) was 5.3 h, the AUC(0-inf) [2, 6] was 871 ng·h/mL and the AUC(0-t) [2, 6] was 849 ng·h/mL. For the same compound, the C0 [2, 6] was 3870 ng/mL, the MRT inf [2, 6] was 4.1 h and the clearance [2, 6] was 38.4 mL/min/kg. It also gave an AUC(0-inf) [2, 7] of 41.5 ng·h/mL, an AUC(0-t) [2, 7] of 32.8 ng·h/mL and a CL/F [2, 7] of 4030 mL/min/kg. It also gave a Cmax [2, 7] of 18.3 ng/mL, a half-life [2, 7] of 3.62 h and a Vd/F ([2]; mouse, blood, oral, 10 mg/kg, fed BALB/c mice, mean N = 3, read-out: Vz/F) of 1270 L/kg. It also gave an F ([2]; oral 10 mg/kg vs IV 2 mg/kg, fed BALB/c mice, mean N = 3) of 0.773%, an IC50 [3, 8] of 1.7 µM and an IC50 ([3]; HCT116, normoxic conditions (20% O2)) of 0.7 µM. For the same compound, the IC50 [4] was 4.3 µM, the IC50 ([4]; Homo sapiens, MIA PaCa-2, 72 h) was less than 6 µM and the IC50 [5] was 3.2 µM.

`CN(CCCCCCc1ccccc1)CCCCNC(=O)c1nc(Cl)c(NCc2ccc(Cl)cc2)nc1N` [AA6, 3-amino-6-chloro-5-((4-chlorobenzyl)amino)-N-(4-(methyl(6-phenylhexyl)amino)butyl)pyrazine-2-carboxamide] gave an IC50 [1] of 5.9 µM, an IC50 ([1]; Homo sapiens, PANC-1, 72 h) of less than 6 µM and an IC50 [3, 8] of 5 µM. It also gave an IC50 [3, 9] of less than 6 µM, an IC50 [4] of 5.1 µM and an IC50 ([4]; Homo sapiens, MIA PaCa-2, 72 h) of less than 6 µM. For the same compound, the IC50 [5] was 3.6 µM.

With `N.N.[Cl][Pt][Cl]` [Cisplatin, reference compound] the IC50 ([1]; listed as cisplatin) was 12.2 µM, the IC50 [1] was 14.2 µM and the IC50 ([4]; listed as cisplatin) was 14.2 µM. For the same compound, the IC50 [4] was 12.2 µM and the IC50 [5] was 4.3 µM.

For `CN(C)C(=N)N=C(N)N` [Metformin, reference compound], the IC50 ([1]; Homo sapiens, PANC-1, 72 h) was greater than 5000 µM, the dose response curve ([3]; HCT116, hypoxic conditions, concentrations up to 1 mM) was “failed to result in a recognizable dose response curve” and the IC50 [3, 9] was greater than 1000 µM. The IC50 ([3]; Homo sapiens, HCT-116, 72 h, HCT116, normoxic conditions (20% O2)) was 71.8 µM, the IC50 ([4]; Homo sapiens, MIA PaCa-2, 72 h) was greater than 5000 µM and the IC50 [5] was greater than 100 µM.
